Data reported in patent US7528274B2, “Acylthiols and component thiol compositions as anti-HIV and anti-retroviral agents” (The United States of America as represented by the …, priority 2001, dated 2009).
Where two headings read alike, the source gives them in different places.

What was measured:
[1] = Hydrolysis assay (relative rates of hydrolysis); format: in vitro ADME
Excerpt: (§1) One of the advantages of the compounds of the present invention over previously identified antiretroviral agents is their increased hydrolytic stability, which improves their biological activity and reduces the amount of compound that must be delivered to a treated subject to produce the desired effect. […] A PATE compound having the following structure is included: […]

[2] = tested on: HIV p24; experiment: p24 inhibition ELISA assay, HIV transgenic mouse model spleen cells; format: cell-based; settings: for EC50: Human immunodeficiency virus 1
Excerpt: as §1

[3] = XTT assay, cytotoxicity (cellular growth inhibition) in CEM-SS cells; format: cell-based; settings: human
Excerpt: (§2) One exemplary means to determine antiviral activity is with CEM-SS cells and virus (e.g., HIV-1RF) (MOI=0.01) using the XTT (2,3-bis[2-methoxy-4-nitro-5-sulfophenyl]-5-[(phenylamino)carbonyl]-2H-tetrazolium hydroxide) cytoprotection assay, as described by Rice (1993) PNAS 90:9721-9724, and Rice (1997) Antimicrob. Agents Chemother. […] Briefly, cells are infected with HIV-1RF (or other virus to be tested) in the presence of various dilutions of test compounds or control compounds. The cultures are incubated for seven days. […] The cell death is measured by XTT dye reduction. XTT is a soluble tetrazolium dye that measures mitochondrial energy output, similar to MTT. […] Individual assays are done in duplicate using a sister plate method.
as §2, with “{2,3-bis[2-methoxy-4-nitro-5-sulfophenyl]-5- -[(phenylamino)carbonyl]-2H-tetrazolium hydroxide}” for “(2,3-bis[2-methoxy-4-nitro-5-sulfophenyl]-5-[(phenylamino)carbonyl]-2H-tetrazolium hydroxide)”, “Proc. Natl. Acad. Sci. USA 90: 9721-9724,” for “PNAS 90:9721-9724,”, “Agents &” for “Agents”, “and controls.” for “or control compounds.”, “method. […] Compound numbers therein refer to the numbers used in FIG. 1.” for “method.”

[4] = tested on: HIV-1RF; experiment: XTT cytoprotection assay, CEM-SS cells infected with HIV-1RF; format: cell-based; settings: for EC50: read-out: EC50 (50% cytoprotection)
Excerpt: as §2
as §2, with “{2,3-bis[2-methoxy-4-nitro-5-sulfophenyl]-5- -[(phenylamino)carbonyl]-2H-tetrazolium hydroxide}” for “(2,3-bis[2-methoxy-4-nitro-5-sulfophenyl]-5-[(phenylamino)carbonyl]-2H-tetrazolium hydroxide)”, “Proc. Natl. Acad. Sci. USA 90: 9721-9724,” for “PNAS 90:9721-9724,”, “Agents &” for “Agents”, “and controls.” for “or control compounds.”, “method. […] Compound numbers therein refer to the numbers used in FIG. 1.” for “method.”

[5] = tested on: HIV transgenic mouse model spleen cells; experiment: Cytotoxicity, HIV transgenic mouse model spleen cells; format: cell-based
Excerpt: as §1

[6] = tested on: CEM-SS cells; experiment: XTT assay, cytotoxicity (cellular growth inhibition) in CEM-SS cells; format: cell-based; settings: read-out: IC50 (50% cytotoxicity)
Excerpt: as §2
as §2, with “{2,3-bis[2-methoxy-4-nitro-5-sulfophenyl]-5- -[(phenylamino)carbonyl]-2H-tetrazolium hydroxide}” for “(2,3-bis[2-methoxy-4-nitro-5-sulfophenyl]-5-[(phenylamino)carbonyl]-2H-tetrazolium hydroxide)”, “Proc. Natl. Acad. Sci. USA 90: 9721-9724,” for “PNAS 90:9721-9724,”, “Agents &” for “Agents”, “and controls.” for “or control compounds.”, “method. […] Compound numbers therein refer to the numbers used in FIG. 1.” for “method.”

[7] = Human immunodeficiency virus 1, 168 h, HIV-1RF, CEM-SS cells, seven days, XTT
[8] = Human immunodeficiency virus 1, CEM-SS, 168 h

EC50 [4, 7] [µM]	Compound	IC50 at 7 days [3] [µM]	Therapeutic Index ([4]; HIV-1RF, CEM-SS cells)	also measured
	Cc1cccc(C(=O)NCCC(N)=O)c1SC(=O)c1ccccc1 [Compound 61]			half-life [1]: 7.02 h; EC50 [2]: 15.7 µM
0.59	CCOC(=O)CCNC(=O)Sc1ccccc1C(=O)NCCC(N)=O [Compound 115]	117	196	
	NC(=O)CCNC(=O)c1ccccc1SC(=O)NCCBr [Compound 111]	4.9	10	EC50 [4, 8]: 0.48 µM
	NC(=O)CNC(=O)c1ccccc1SC(=O)NCCBr [Compound 110]	5.23	3.4	EC50 [4, 8]: 1.53 µM
	CC(C)(C)CC(C)(C)NC(=O)Sc1ccccc1C(=O)N1CC1C(N)=O (stereo not drawn) [Compound 131]		80	IC50 [6]: 35.8 µM; EC50 ([4]; HIV-1RF, CEM-SS cells, seven days, XTT): 0.45 µM
2.7	COc1ccccc1C(=O)Sc1ccccc1C(=O)NCCC(N)=O [Compound 9]	790	298	
2.5	NC(=O)CCNC(=O)c1ccc(Cl)cc1SC(=O)Cc1ccccc1 [Compound 26]	35	14	

Compound	EC50 [4, 7] [µM]	IC50 at 7 days [3] [µM]	Therapeutic Index ([4]; HIV-1RF, CEM-SS cells)	also measured
COc1ccc(C(=O)Sc2ccccc2C(=O)NCCC(N)=O)cc1OC [Compound 11]	6.9	165	24	half-life [1]: 4.07 h; EC50 [2]: 3.6 µM; Therapeutic Index ([2]; p24 inhibition ELISA, HIV transgenic mouse model spleen cells): >69; IC50 [5]: > 250 µM
